From the supplement of paper PMC10307832

These cell lines were tested with O=C(NC1CCNCC1)c1n[nH]cc1NC(=O)c1c(Cl)cccc1Cl [AT-7519] + Cc1nc(Nc2ncc(C(=O)Nc3c(C)cccc3Cl)s2)cc(N2CCN(CCO)CC2)n1 [Dasatinib] (partner 0.075 µM) (assay: relative viability (nuclei count vs DMSO), 5 days (fraction); higher = more cells survive). Conditions: first compound 1 µM.
How it was run: (§1)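 A single step with final 0.05% Triton X-100, 1% formaldehyde and 1 ug/ml Hoechst fixed the cells and stained nuclei 5 days after treatment. Lung cancer cell lines in 1536-well plates had been treated by pin tool the day after seeding with one drug alone or a fixed anchor-drug dose plus five library-drug doses (not always all listed) in √10 steps, and nuclei were counted on 4× images. Relative viability is the ratio of nuclei in treated wells to nuclei in vehicle wells, taken as the median of duplicate plates.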

Cell Line	relative viability
NCI-H2085	0.218
HCC-366	0.308
NCI-H1666	0.593
NCI-H596	0.612
LK-2	0.221
NCI-H2087	0.108
SK-MES-1	0.217
H3255	0.313
COR-L23	0.137
COR-L 105	0.23
LOU-NH91	0.511
NCI-H2170	0.558
NCI-H522	0.956
SW 900	0.254
NCI-H1395	0.413
NCI-H1792	0.654
NCI-H1793	0.247
NCI-H1563	0.434
NCI-H1944	0.124
ABC-1	0.262
NCI-H358	0.119

What follows are cell lines tested with O=C(NC1CCNCC1)c1n[nH]cc1NC(=O)c1c(Cl)cccc1Cl [AT-7519] + CC(C)C[C@H](NC(=O)[C@H](Cc1ccccc1)NC(=O)c1cnccn1)B(O)O [Bortezomib] (partner 0.002 µM) in the same assay as above. Conditions: first compound 0.01 µM.
How it was run: as §1

Cell Line	relative viability
NCI-H727	0.973
NCI-H1650	0.19
EBC-1	0.615
NCI-H1703	0.392
NCI-H1993	0.987
SW 1573	0.981
NCI-H838	0.644
LCLC-103H	1.01
NCI-H520	0.745
NCI-H2126	1.17
EMC-BAC-2	1.04
NCI-H2085	1.22
Calu-6	1.11
HCC-366	1.26
NCI-H1666	0.782
NCI-H596	1.08
NCI-H2087	0.82
H3255	0.904
COR-L23	0.994
COR-L 105	0.75
IA-LM	0.927
LOU-NH91	0.541
HCC-44	0.752
NCI-H1299	1.05
NCI-H1792	0.752
NCI-H1563	0.874
ABC-1	0.291

Same assay, conditions: first compound 0.03162 µM

Cell Line	relative viability
NCI-H727	0.837
NCI-H1650	0.203
EBC-1	0.551
NCI-H1703	0.323
NCI-H1993	0.979
SW 1573	0.842
NCI-H838	0.804
LCLC-103H	1.05
NCI-H520	0.628
NCI-H2126	1.14
EMC-BAC-2	1.07
NCI-H2085	1.04
Calu-6	0.975
HCC-366	0.864
NCI-H1666	0.794
NCI-H596	1.13
NCI-H2087	1.05
H3255	0.825
COR-L23	0.863
COR-L 105	0.898
IA-LM	0.979
LOU-NH91	0.541
HCC-44	1.02
NCI-H1299	0.996
NCI-H1792	0.89
NCI-H1563	0.905
ABC-1	0.337

Same assay, conditions: first compound 0.3162 µM

Cell Line	relative viability
NCI-H727	0.573
NCI-H1650	0.183
EBC-1	0.443
NCI-H1703	0.182
NCI-H1993	1.07
SW 1573	0.884
NCI-H838	0.416
LCLC-103H	1.07
NCI-H520	0.413
NCI-H2126	1.13
EMC-BAC-2	1.01
NCI-H2085	0.995
Calu-6	1
HCC-366	1.07
NCI-H1666	0.733
NCI-H596	0.882
NCI-H2087	0.811
H3255	0.984
COR-L23	0.82
COR-L 105	0.65
IA-LM	0.781
LOU-NH91	0.468
HCC-44	1.01
NCI-H1299	1.05
NCI-H1792	0.882
NCI-H1563	0.901
ABC-1	0.259

Same assay, conditions: first compound 1 µM

Cell Line	relative viability
NCI-H727	0.526
NCI-H1650	0.194
EBC-1	0.23
NCI-H1703	0.151
NCI-H1993	0.683
SW 1573	0.428
NCI-H838	0.0826
LCLC-103H	1.2
NCI-H520	0.323
NCI-H2126	1.17
EMC-BAC-2	1.07
NCI-H2085	0.964
Calu-6	0.328
HCC-366	0.442
NCI-H1666	0.333
NCI-H596	1.03
NCI-H2087	0.51
H3255	0.766
COR-L23	0.2
COR-L 105	0.344
IA-LM	0.302
LOU-NH91	0.478
HCC-44	0.979
NCI-H1299	1.28
NCI-H1792	0.888
NCI-H1563	0.85
ABC-1	0.231

These cell lines were tested with O=C(NC1CCNCC1)c1n[nH]cc1NC(=O)c1c(Cl)cccc1Cl [AT-7519] + O=C(CCCCCCC(=O)Nc1ccccc1)NO [Vorinostat] (partner 1 µM) in the same assay as above. Conditions: first compound 0.01 µM.
How it was run: as §1

Cell Line	relative viability
NCI-H2342	0.773
NCI-H727	1.17
NCI-H1650	0.534
NCI-H1993	0.629
SW 1573	0.812
NCI-H838	0.758
LCLC-103H	0.848
NCI-H520	0.712
NCI-H2126	0.79
EMC-BAC-2	0.424
NCI-H2085	0.783
HCC-366	0.254
NCI-H1666	0.998
NCI-H596	0.584
LK-2	0.247
NCI-H2087	1.01

Cell Line	relative viability
NCI-H1648	0.479
SK-MES-1	1.2
H3255	0.794
COR-L23	0.508
COR-L 105	0.791
IA-LM	0.607
LOU-NH91	0.932
NCI-H2170	0.718
HCC-44	1.16
NCI-H522	0.933
SW 900	0.398
NCI-H1395	0.82
NCI-H1793	0.514
NCI-H1944	0.547
ABC-1	1.16
NCI-H358	0.646

Same assay, conditions: first compound 0.03162 µM

Cell Line	relative viability
NCI-H2342	0.696
NCI-H727	1.08
NCI-H1650	0.681
NCI-H1993	0.605
SW 1573	0.696
NCI-H838	0.653
LCLC-103H	0.774
NCI-H520	0.793
NCI-H2126	0.731
EMC-BAC-2	0.422
NCI-H2085	0.78
HCC-366	0.325
NCI-H1666	0.931
NCI-H596	0.611
LK-2	0.258
NCI-H2087	0.632

Cell Line	relative viability
SK-MES-1	1.1
H3255	0.816
COR-L23	0.507
COR-L 105	0.856
IA-LM	0.501
LOU-NH91	1
NCI-H2170	0.867
HCC-44	1.08
NCI-H522	0.815
SW 900	0.482
NCI-H1395	0.655
NCI-H1793	0.849
NCI-H1944	0.528
ABC-1	1.14
NCI-H358	0.604

Same assay, conditions: first compound 0.3162 µM

Cell Line	relative viability
NCI-H2342	0.772
NCI-H727	1.11
NCI-H1650	0.489
NCI-H1993	0.82
SW 1573	0.615
NCI-H838	0.62
LCLC-103H	0.768
NCI-H520	0.659
NCI-H2126	0.646
EMC-BAC-2	0.531
NCI-H2085	0.74
HCC-366	0.278
NCI-H1666	1.03
NCI-H596	0.471
LK-2	0.332
NCI-H2087	0.607

Cell Line	relative viability
NCI-H1648	0.29
SK-MES-1	1.05
H3255	0.905
COR-L23	0.344
COR-L 105	0.686
IA-LM	1.01
LOU-NH91	0.897
NCI-H2170	0.869
HCC-44	1.11
NCI-H522	0.963
SW 900	0.294
NCI-H1395	0.57
NCI-H1793	0.615
NCI-H1944	0.534
ABC-1	1.01
NCI-H358	0.5

Same assay, conditions: first compound 1 µM

Cell Line	relative viability
NCI-H2342	0.631
NCI-H727	0.794
NCI-H1650	0.23
NCI-H1993	0.539
SW 1573	0.231
NCI-H838	0.153
LCLC-103H	0.814
NCI-H520	0.429
NCI-H2126	0.668
EMC-BAC-2	0.878
NCI-H2085	0.929
HCC-366	0.241
NCI-H1666	0.959
NCI-H596	0.697
LK-2	0.241
NCI-H2087	0.206

Cell Line	relative viability
NCI-H1648	0.3
SK-MES-1	0.934
H3255	0.787
COR-L23	0.152
COR-L 105	0.499
IA-LM	0.723
LOU-NH91	0.82
NCI-H2170	0.736
HCC-44	1.08
NCI-H522	1.05
SW 900	0.493
NCI-H1395	0.565
NCI-H1793	0.767
NCI-H1944	0.436
ABC-1	1.28
NCI-H358	0.108
